Assay: MALDI-TOF screening of Ni^2+ dependent hydrolysis in a combinatorial peptide library
Assay type: physicochemical
Settings: Ni^2+ 2 mM, pH 8.2, 10 mM Tris, score=24/tm
Procedure, shortened: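 Sublibraries of Ac-Gly-Ala-Ser/Thr-X-His-Z-Lys-Phe-Leu-NH2, randomized at Z and fixed at X, were hydrolyzed at 1 mM total peptide with 2 mM Ni2+ in 10 mM Tris, pH 8.2, at 37 °C or 45 °C. Cleavage was scored visually in MALDI-TOF spectra at 2, 4, 6 and 8 h.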

[1] = CH3CO-Gly-Ala-Ser-X-His-Z-Lys-Phe-Leu-NH2 library, 37° C.
[2] = CH3CO-Gly-Ala-Ser-X-His-Z-Lys-Phe-Leu-NH2 library, 45° C.
[3] = CH3CO-Gly-Ala-Thr-X-His-Z-Lys-Phe-Leu-NH2 library, 37° C.
[4] = CH3CO-Gly-Ala-Thr-X-His-Z-Lys-Phe-Leu-NH2 library, 45° C.

Substance	hydrolysis score from MALDI-TOF screening [1]	hydrolysis score from MALDI-TOF screening [2]	hydrolysis score from MALDI-TOF screening [3]	hydrolysis score from MALDI-TOF screening [4]
Ac-GASVHEKFL-NH2 [SVHE]	0 (a score of 0 if no trace of the product of hydrolysis was seen after 8 hours of incubation)	0 (a score of 0 if no trace of the product of hydrolysis was seen after 8 hours of incubation)	–	–
Ac-GASQHTKFL-NH2 [SQHT]	0 (a score of 0 if no trace of the product of hydrolysis was seen after 8 hours of incubation)	0 (a score of 0 if no trace of the product of hydrolysis was seen after 8 hours of incubation)	–	–
Ac-GATWHMKFL-NH2 [TWHM]	–	–	0 (a score of 0 if no trace of the product of hydrolysis was seen after 8 hours of incubation)	3 (a score of 3 for detection at 8 hours)
Ac-GATKHRKFL-NH2 [TKHR]	–	–	4 (a score of 4 for detection at 6 hours)	12 (a score of 12, if it was seen to be partially hydrolysed at 2 hours)
Ac-GASWHVKFL-NH2 [SWHV]	3 (a score of 3 for detection at 8 hours)	12 (a score of 12, if it was seen to be partially hydrolysed at 2 hours)	–	–
Ac-GATRHAKFL-NH2 [TRHA]	–	–	0 (a score of 0 if no trace of the product of hydrolysis was seen after 8 hours of incubation)	3 (a score of 3 for detection at 8 hours)
Ac-GASRHGKFL-NH2 [SRHG]	3 (a score of 3 for detection at 8 hours)	6 (a score of 6 for detection at 4 hours)	–	–
Ac-GATWHPKFL-NH2 [TWHP]	–	–	0 (a score of 0 if no trace of the product of hydrolysis was seen after 8 hours of incubation)	0 (a score of 0 if no trace of the product of hydrolysis was seen after 8 hours of incubation)
Ac-GATGHYKFL-NH2 [TGHY]	–	–	0 (a score of 0 if no trace of the product of hydrolysis was seen after 8 hours of incubation)	0 (a score of 0 if no trace of the product of hydrolysis was seen after 8 hours of incubation)
Ac-GATIHSKFL-NH2 [TIHS]	–	–	0 (a score of 0 if no trace of the product of hydrolysis was seen after 8 hours of incubation)	0 (a score of 0 if no trace of the product of hydrolysis was seen after 8 hours of incubation)
Ac-GASFHGKFL-NH2 [SFHG]	0 (a score of 0 if no trace of the product of hydrolysis was seen after 8 hours of incubation)	0 (a score of 0 if no trace of the product of hydrolysis was seen after 8 hours of incubation)	–	–
Ac-GATQHTKFL-NH2 [TQHT]	–	–	0 (a score of 0 if no trace of the product of hydrolysis was seen after 8 hours of incubation)	0 (a score of 0 if no trace of the product of hydrolysis was seen after 8 hours of incubation)
Ac-GATGHKKFL-NH2 [TGHK]	–	–	0 (a score of 0 if no trace of the product of hydrolysis was seen after 8 hours of incubation)	0 (a score of 0 if no trace of the product of hydrolysis was seen after 8 hours of incubation)
Ac-GASLHPKFL-NH2 [SLHP]	0 (a score of 0 if no trace of the product of hydrolysis was seen after 8 hours of incubation)	0 (a score of 0 if no trace of the product of hydrolysis was seen after 8 hours of incubation)	–	–
Ac-GASLHYKFL-NH2 [SLHY]	0 (a score of 0 if no trace of the product of hydrolysis was seen after 8 hours of incubation)	3 (a score of 3 for detection at 8 hours)	–	–
Ac-GASYHKKFL-NH2 [SYHK]	4 (a score of 4 for detection at 6 hours)	6 (a score of 6 for detection at 4 hours)	–	–
Ac-GATQHYKFL-NH2 [TQHY]	–	–	0 (a score of 0 if no trace of the product of hydrolysis was seen after 8 hours of incubation)	0 (a score of 0 if no trace of the product of hydrolysis was seen after 8 hours of incubation)
Ac-GASHHNKFL-NH2 [SHHN]	0 (a score of 0 if no trace of the product of hydrolysis was seen after 8 hours of incubation)	0 (a score of 0 if no trace of the product of hydrolysis was seen after 8 hours of incubation)	–	–
Ac-GATSHIKFL-NH2 [TSHI]	–	–	0 (a score of 0 if no trace of the product of hydrolysis was seen after 8 hours of incubation)	0 (a score of 0 if no trace of the product of hydrolysis was seen after 8 hours of incubation)

Substance	hydrolysis score from MALDI-TOF screening [1]	hydrolysis score from MALDI-TOF screening [2]	hydrolysis score from MALDI-TOF screening [3]	hydrolysis score from MALDI-TOF screening [4]
Ac-GASFHDKFL-NH2 [SFHD]	0 (a score of 0 if no trace of the product of hydrolysis was seen after 8 hours of incubation)	0 (a score of 0 if no trace of the product of hydrolysis was seen after 8 hours of incubation)	–	–
Ac-GATGHVKFL-NH2 [TGHV]	–	–	0 (a score of 0 if no trace of the product of hydrolysis was seen after 8 hours of incubation)	0 (a score of 0 if no trace of the product of hydrolysis was seen after 8 hours of incubation)
Ac-GATTHQKFL-NH2 [TTHQ]	–	–	0 (a score of 0 if no trace of the product of hydrolysis was seen after 8 hours of incubation)	0 (a score of 0 if no trace of the product of hydrolysis was seen after 8 hours of incubation)
Ac-GATNHEKFL-NH2 [TNHE]	–	–	0 (a score of 0 if no trace of the product of hydrolysis was seen after 8 hours of incubation)	0 (a score of 0 if no trace of the product of hydrolysis was seen after 8 hours of incubation)
Ac-GASPHIKFL-NH2 [SPHI]	0 (a score of 0 if no trace of the product of hydrolysis was seen after 8 hours of incubation)	0 (a score of 0 if no trace of the product of hydrolysis was seen after 8 hours of incubation)	–	–
Ac-GATTHSKFL-NH2 [TTHS]	–	–	0 (a score of 0 if no trace of the product of hydrolysis was seen after 8 hours of incubation)	0 (a score of 0 if no trace of the product of hydrolysis was seen after 8 hours of incubation)
Ac-GATIHKKFL-NH2 [TIHK]	–	–	0 (a score of 0 if no trace of the product of hydrolysis was seen after 8 hours of incubation)	3 (a score of 3 for detection at 8 hours)
Ac-GATTHRKFL-NH2 [TTHR]	–	–	0 (a score of 0 if no trace of the product of hydrolysis was seen after 8 hours of incubation)	3 (a score of 3 for detection at 8 hours)
Ac-GATNHNKFL-NH2 [TNHN]	–	–	0 (a score of 0 if no trace of the product of hydrolysis was seen after 8 hours of incubation)	0 (a score of 0 if no trace of the product of hydrolysis was seen after 8 hours of incubation)
Ac-GATIHIKFL-NH2 [TIHI]	–	–	0 (a score of 0 if no trace of the product of hydrolysis was seen after 8 hours of incubation)	0 (a score of 0 if no trace of the product of hydrolysis was seen after 8 hours of incubation)
Ac-GASHHWKFL-NH2 [SHHW]	6 (a score of 6 for detection at 4 hours)	12 (a score of 12, if it was seen to be partially hydrolysed at 2 hours)	–	–
Ac-GATRHLKFL-NH2 [TRHL]	–	–	6 (a score of 6 for detection at 4 hours)	12 (a score of 12, if it was seen to be partially hydrolysed at 2 hours)
Ac-GASIHQKFL-NH2 [SIHQ]	0 (a score of 0 if no trace of the product of hydrolysis was seen after 8 hours of incubation)	0 (a score of 0 if no trace of the product of hydrolysis was seen after 8 hours of incubation)	–	–
Ac-GATQHFKFL-NH2 [TQHF]	–	–	0 (a score of 0 if no trace of the product of hydrolysis was seen after 8 hours of incubation)	0 (a score of 0 if no trace of the product of hydrolysis was seen after 8 hours of incubation)
Ac-GASPHLKFL-NH2 [SPHL]	0 (a score of 0 if no trace of the product of hydrolysis was seen after 8 hours of incubation)	0 (a score of 0 if no trace of the product of hydrolysis was seen after 8 hours of incubation)	–	–
Ac-GASQHSKFL-NH2 [SQHS]	0 (a score of 0 if no trace of the product of hydrolysis was seen after 8 hours of incubation)	0 (a score of 0 if no trace of the product of hydrolysis was seen after 8 hours of incubation)	–	–
Ac-GATKHYKFL-NH2 [TKHY]	–	–	3 (a score of 3 for detection at 8 hours)	6 (a score of 6 for detection at 4 hours)
Ac-GASYHGKFL-NH2 [SYHG]	0 (a score of 0 if no trace of the product of hydrolysis was seen after 8 hours of incubation)	0 (a score of 0 if no trace of the product of hydrolysis was seen after 8 hours of incubation)	–	–
Ac-GASHHPKFL-NH2 [SHHP]	0 (a score of 0 if no trace of the product of hydrolysis was seen after 8 hours of incubation)	0 (a score of 0 if no trace of the product of hydrolysis was seen after 8 hours of incubation)	–	–

Reference: patent US8969516B2, “Method of hydrolysis of peptide bond” (priority 2006, dated 2015)
